Laboratory results published in PubChem BioAssay (NCI).
“And” between values parts separate entries of the source, which are not always exact repeats. Equal values may be shown once.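 Each compound was tested at five concentrations against cells in 96-well plates for 48 hours. GI50: concentration for 50% inhibition of growth. At the TGI there is no net growth.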 Where a SMILES comes first, the peptide text is derived from it. [ ]: non-standard residue; d: D form. The star is where a group is joined. ξ: configuration not given here. X6 = FC(F)(F)c1cc(NC(=S)*)cc(C(F)(F)F)c1; ξF = NC(Cc1ccccc1)C(=O)O

What was measured:
Assay in all cases: NCI anticancer screen, dose series, 48 h
SR leukemia = tested on: SR leukemia
CAKI-1 renal = tested on: CAKI-1 renal
MALME-3M melanoma = tested on: MALME-3M melanoma
ACHN renal = tested on: ACHN renal
K-562 leukemia = tested on: K-562 leukemia
NCI-H522 lung = tested on: NCI-H522 lung
DU-145 prostate = tested on: DU-145 prostate
SK-MEL-2 melanoma = tested on: SK-MEL-2 melanoma
UACC-257 melanoma = tested on: UACC-257 melanoma
LOX IMVI melanoma = tested on: LOX IMVI melanoma

SMILES	GI50 (SR leukemia)	TGI (SR leukemia)	GI50 (CAKI-1 renal)	TGI (CAKI-1 renal)	GI50 (MALME-3M melanoma)	TGI (MALME-3M melanoma)	GI50 (ACHN renal)	TGI (ACHN renal)	GI50 (K-562 leukemia)	TGI (K-562 leukemia)	GI50 (NCI-H522 lung)	TGI (NCI-H522 lung)	GI50 (DU-145 prostate)	TGI (DU-145 prostate)	GI50 (SK-MEL-2 melanoma)	TGI (SK-MEL-2 melanoma)	GI50 (UACC-257 melanoma)	TGI (UACC-257 melanoma)	TGI (LOX IMVI melanoma)	GI50 (LOX IMVI melanoma)
CO[C@H](C(=O)[C@@H](O)[C@@H](C)O)[C@@H]1Cc2cc3cc(O[C@H]4C[C@@H](O[C@H]5C[C@@H](O)[C@H](O)C(C)O5)[C@H](O)C(C)O4)c(C)c(O)c3c(O)c2C(=O)[C@H]1O[C@H]1C[C@@H](O[C@H]2C[C@@H](O[C@H]3C[C@](C)(O)C(=O)C(C)O3)[C@@H](O)C(C)O2)[C@H](O)C(C)O1 (some centres not stated)	0.0385 µM	> 33.2 µM	0.924 µM	> 33.2 µM	0.0388 µM	0.28 µM	0.154 µM	1.55 µM	0.1 µM	> 33.2 µM	0.0288 µM	0.285 µM	0.127 µM	> 33.2 µM	0.059 µM	0.156 µM	0.0995 µM	2.27 µM	–	–
CC[C@@]1(O)C[C@H](OC2CC(N(C)C)C(O)C(C)O2)c2c(O)c3c(c(O)c2[C@H]1OC1CC(N(C)C)C(O)C(C)O1)C(=O)c1cccc(O)c1C3=O (some centres not stated)	< 0.01 µM	0.0273 µM	–	0.0545 µM	< 0.01 µM	–	0.03 µM and < 0.01 µM	< 0.01 µM	< 0.01 µM	–	< 0.01 µM	0.0857 µM and < 0.01 µM	< 0.01 µM	11.3 µM	< 0.01 µM	0.0568 µM and < 0.01 µM	< 0.01 µM	–	0.0923 µM	–
Nc1ccccc1SC(C[N+](=O)[O-])c1ccc2c(c1)OCO2 (configuration not stated)	–	4.82 µM	–	26.6 µM	–	29.8 µM	–	19 µM	–	7 µM	–	28.3 µM	–	8.77 µM	–	27.7 µM	–	3.86 µM	3.68 µM	–
NC(=O)c1sc(-n2cnc3ccccc32)cc1OCc1ccccc1Br	3.09 µM	> 25 µM	14.2 µM	> 25 µM	–	–	15.8 µM	> 25 µM	6.71 µM	> 25 µM	3.99 µM	12.7 µM	2.02 µM	7.19 µM	6.43 µM	> 25 µM	17.3 µM	> 25 µM	> 25 µM	1.98 µM
Clc1ccc2c(NCCCCNc3nc(N4CCCCC4)nc4ccccc34)ccnc2c1	0.408 µM	2.88 µM	–	–	1.85 µM	3.48 µM	2.1 µM	4.77 µM	1.34 µM	4.1 µM	2.04 µM	5.3 µM	3.8 µM	15.2 µM	1.98 µM	4.02 µM	2.05 µM	3.68 µM	3.14 µM	1.5 µM
O=C1/C(=C/c2cccc([N+](=O)[O-])c2)COc2ccc(O)cc21	0.278 µM	1.18 µM	1.78 µM	3.58 µM	2.37 µM	6.75 µM	1.75 µM	3.21 µM	0.506 µM	11.8 µM	1.47 µM	3.02 µM	2 µM	4.26 µM	2.1 µM	5.3 µM	2.37 µM	6.66 µM	2.92 µM	1.49 µM
CCCCCN(CCCCC)CC(O)c1cc(C)c2ccc3cc(C(C)C)ccc3c2c1 (configuration not stated)	0.836 µM	3.17 µM	1.4 µM	2.81 µM	1.92 µM	3.85 µM	1.6 µM	3.05 µM	2.17 µM	4.46 µM	1.81 µM	3.85 µM	1.89 µM	3.37 µM	2.2 µM	4.83 µM	1.99 µM	3.97 µM	3.28 µM	1.76 µM
c1ccc2cc(-c3cc(-c4cc(-c5ccc6ccccc6c5)on4)no3)ccc2c1	–	> 100 µM	–	> 100 µM	–	> 100 µM	–	> 100 µM	–	> 100 µM	–	> 100 µM	–	> 100 µM	–	> 100 µM	–	> 100 µM	> 100 µM	–
NC(=O)c1cccc2cn(-c3ccc([C@@H]4CCCNC4)cc3)nc12	1.94 µM	12.5 µM	5.77 µM	20.2 µM	15.2 µM	30.5 µM	12.4 µM	25.9 µM	14.1 µM	36.8 µM	20.4 µM	55.6 µM	8.97 µM	21.9 µM	19.7 µM	39.3 µM	15.8 µM	30.7 µM	22.2 µM	8.16 µM
COC(=O)[C@@H](NC(=O)CNC(=O)[C@H]1CCCN1C(=O)C(Cc1ccccc1)NC(=S)Nc1cc(C(F)(F)F)cc(C(F)(F)F)c1)C(C)C (some centres not stated) (X6-[ξF][dP]GV-OMe)	2.57 µM	8.58 µM	2.71 µM	10.5 µM	3.88 µM	15.1 µM	3.36 µM	10.7 µM	3.27 µM	30.1 µM	3.04 µM	8.65 µM	4.85 µM	20.8 µM	2.86 µM	6.86 µM	2.14 µM	5.75 µM	5.55 µM	2.25 µM
COC1CCC(N2C(=O)CNc3ncc(-c4ccc(C(C)(C)O)nc4)nc32)CC1 (configuration not stated)	1.06 µM and 0.331 µM	> 47.2 µM	0.412 µM	> 6.75 µM	0.228 µM and 0.0287 µM	2.8 µM and 0.352 µM	1.07 µM and 0.205 µM	> 100 µM	2.28 µM and 0.77 µM	> 100 µM	0.322 µM and 0.0656 µM	2.63 µM	1.42 µM and 0.459 µM	> 38 µM	0.772 µM and 0.183 µM	3.69 µM and 1.48 µM	0.649 µM and 0.195 µM	5.23 µM and 3.83 µM	> 34.2 µM	1.35 µM and 0.329 µM
O=C(Nc1ccc(Cl)c(Cl)c1)Nc1ccc(Cl)c(Cl)c1	2.7 µM and 2.26 µM	10.9 µM and 6.66 µM	2.6 µM and 1.94 µM	9.96 µM and 4.59 µM	2.22 µM and 2.44 µM	5.95 µM and 6.58 µM	2.34 µM and 3.28 µM	6.49 µM and 10.5 µM	3.39 µM and 1.97 µM	19.8 µM and 9.9 µM	1.68 µM and 1.25 µM	5.67 µM and 3.03 µM	4.03 µM and 4.34 µM	14.4 µM and 16.2 µM	2.15 µM	5.49 µM and 4.09 µM	2.39 µM and 2.05 µM	6.96 µM and 5.85 µM	4.94 µM and 10.3 µM	2.26 µM and 2.95 µM
Cc1ccc(NC2=C(Cl)C(=O)N(Cc3ccccc3)C2=O)cc1O	6.91 µM	> 100 µM	28.1 µM	> 100 µM	24.1 µM	> 100 µM	–	–	17.8 µM	> 100 µM	41.2 µM	> 100 µM	60.1 µM	> 100 µM	7.83 µM	54.8 µM	39.5 µM	> 100 µM	63.4 µM	18 µM
